Data set [1] deals with SH-SY5Y cells. Description: Toxicity of peptides on differentiated SH-SY5Y cells (MTT test). The data set is classed as cell-based, human. As to conditions: 24 h; for toxicity for living cells: up to 20 μM, mean of three independent assays. As for the experimental part: Figure 2 Analysis of the effects of Aβ1-6WT(D), Aβ1-6A2V(D) and Aβ1-6A2VTAT(D) on neurotoxicity in cell models. SH-SY5Y cells were differentiated with 10 μM retinoic acid. […] Comparison of cell viability was performed by Student t-test.
Toxicity studies with Aβ1-6WT(D), Aβ1-6A2V(D) or Aβ1-6A2VTAT(D) and the short peptides’ ability to inhibit the toxicity induced by Aβ1-42WT in SH-SY5Y cell cultures were analyzed following previously described protocols. Each experiment was performed in triplicate; the data provided were obtained as the mean of three independent assays.
In general terms: Formazan colour is commonly taken as a measure of viable cells.

Data set [2] in a line: Crossing of blood brain barrier and cell membranes (data not shown). As to conditions: peptide alone.
The subject of data set [3] is amyloid plaques. As to the kind of experiment: Binding of biotinylated peptides to amyloid in CRND8 mouse brain sections. As to conditions: for staining of amyloid plaques in transgenic mouse brain: CRND8 transgenic brain sections, avidin-biotin complex / DAB. The method, then: It was tested on brain sections of transgenic and control mice of CRND8 strain[44]. To unequivocally identify the fragment(s) of the peptide responsible for binding to plaques we used three separate segments: Biot-Aβ1-6WT(D), Biot-Aβ1-6A2V(D) and Biot-TAT(D). Seven-micrometre thick brain sections fixed in Carnoy and embedded in paraffin were used for staining.

Data set [4] has as its target T1, Aβ1-42WT (Homo sapiens, UniProt P05067).
T1 construct: Aβ1-42WT oligomers were formed following incubation of Aβ1-42WT at a final concentration of 100 μM; made in house; host or cells: chemical synthesis (solid-phase Fmoc), no expression host
As to the kind of experiment: Atomic force microscopy of Aβ1-42WT oligomerization. As to conditions: Aβ1-42WT alone, 100 μM, phosphate buffer 50 mM pH 7.4, 4 °C, 24 h, AFM. The data set is classed as biochemical. The method, then:
In polarized-light and EM studies, both peptides were used at 0.125 mM, molar ratio = 1:1 or 1:4 respectively, with 20 days incubation. […] E,F: Representative Tapping mode of AFM images as determined by amplitude error data of Aβ1-42WT oligomers. Aβ1-42WT peptide 100 μM in phosphate buffer 50 mM, pH 7.4 was incubated at 4 °C for 24 h alone (E) (Z range: -10/ + 10 mV) or in presence of Aβ1-6A2VTAT(D) (F) (Z range: -10/ + 25 mV). The molar ratio of Aβ1-42WT to Aβ1-6A2VTAT(D) was 1:4. Scale bar: 1 μm, inset: 200 nm. (G,H): height plot profiles obtained along different lines traced on the topographic AFM images.
Aβ1-42WT oligomers were formed following incubation of Aβ1-42WT at a final concentration of 100 μM in phosphate buffer 50 mM, pH 7.4 at 4 °C for 24 h, alone or in presence of Aβ1-6A2VTAT(D), at 1:4 molar ratio. Sample solutions were diluted to a final concentration of 10 μM of Aβ1-42WT with phosphate buffer and 50 μl of each solution was immediately added onto freshly cleaved mica at room temperature for 2 minutes. Samples were washed and dried under gentle nitrogen flow. AFM analyses were carried out on a Multimode AFM with a Nanoscope V system (Veeco/Digital Instruments). AFM images were analysed using the Scanning Probe Image Processor data analysis package. All the topographic patterns and SPIP characterization were verified via additional measurements on a minimum of five different, well separated areas.

Data set [5] relates to APP. As to conditions: enhanced β-secretase cleavage of APP, increased C99; cited from earlier work. From the text:
This is consistent with our findings, indicating a shift in APP processing towards the amyloidogenic processing i ...

Here are results for seven molecules from article PMC4750079, “Tackling amyloidogenesis in Alzheimer’s disease with A2V variants of Amyloid-β” (Scientific Reports, 2016).

Where a SMILES comes first, the peptide text is derived from it. [ ]: non-standard residue; d: D form.

T1 sequence (P05067 672-713 limits assumed): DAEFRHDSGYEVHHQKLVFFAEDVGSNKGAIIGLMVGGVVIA

For `CC(C)[C@@H](NC(=O)[C@H](N)CC(=O)O)C(=O)N[C@H](CCC(=O)O)C(=O)N[C@H](Cc1ccccc1)C(=O)N[C@H](CCCNC(=N)N)C(=O)N[C@H](Cc1c[nH]cn1)C(=O)O` [Aβ1-6A2V(D)] (H-[dD][dV][dE][dF][dR][dH]-OH), the “toxicity for living cells” value in data set [1] is reported as “neither is toxic for living cells even at high concentrations”. In data set [2], the “crossing of blood brain barrier and cell membranes” value is “does not efficiently cross either the blood brain barrier (BBB) or cell membranes”.
Turning to `C[C@@H](NC(=O)[C@H](N)CC(=O)O)C(=O)N[C@H](CCC(=O)O)C(=O)N[C@H](Cc1ccccc1)C(=O)N[C@H](CCCNC(=N)N)C(=O)N[C@H](Cc1c[nH]cn1)C(=O)O` [Aβ1-6WT(D)] (H-[dD][dA][dE][dF][dR][dH]-OH), the “toxicity for living cells” value in data set [1] is reported as “neither is toxic for living cells even at high concentrations”.
Regarding “Gly-Arg-Lys-Lys-Arg-Arg-Gln-Arg-Arg-Arg [Biot-TAT(D), biotinylated form of TAT(D), reference compound]”, in data set [3], the “staining of amyloid plaques in transgenic mouse brain” value (“staining of amyloid plaques” below) is “strongly stained amyloid deposits”.
For the molecule “H-Asp-ALA/VAL-Glu-Phe-Arg-His-Asp-Ser-Gly-Tyr-Glu-Val-His-His-Gln-Lys-Val-Phe-Phe-Ala-Glu-Asp-Val-Gly-Ala-Ile-Ile-Gly-Leu-Met-Val-Gly-Gly-Val-Val—OH [Aβ1-42WT, synthetic wild-type full-length Amyloid-β 1-42, reference compound]”, the “reduction of cell viability” value in data set [1] is on record as 35%. In addition, the “diameter of small oligomers (~70%)” value in data set [4] is 6-20 nm.
On to “H-Asp-ALA/VAL-Glu-Phe-Arg-His-Gly-Gly-Gly-Gly-Gly-Arg-Lys-Lys-Arg-Arg-Gln-Arg-Arg-Arg [Biot-Aβ1-6WTTAT(D), Aβ1-6WTTAT(D) containing a biotinylated residue at the C-terminus]”, for which the “staining of amyloid plaques” value in data set [3] was “able to bind and therefore stain the plaques”. For the same molecule, the “staining in brain slices of non-transgenic control mice” value in data set [3] (control animals devoid of amyloid plaques, data not shown) is listed as “unable to produce any staining”.
“H-Asp-ALA/VAL-Glu-Phe-Arg-His-OH [Biot-Aβ1-6A2V(D), Aβ1-6A2V(D) containing a biotinylated residue at the C-terminus]”: the “staining of amyloid plaques” value in data set [3] is recorded as “no immunostaining of amyloid was detected”.

B1: TAT: HIV-1 Tat of the cited studies (protein, UniProt P04608 1-86, looked up)
Protein Tat: MEPVDPRLEPWKHPGSQPKTACTNCYCKKCCFHCQVCFITKALGISYGRKKRRQRRRAHQNSQTHQASLSKQPTSQPRGDPTGPKE
In the case of B1, the “fold higher levels of Aβ42” value in data set [5] is 5.5 fold.
